# Values quoted from earlier work in publication PMC9516282, “Low prevalence of influenza A strains with resistance markers in Brazil during 2017–2019 seasons” (Frontiers in Public Health, 2022).
# Test system: PA:E199G
# Design: method as in PMID 30670144
# Settings: virus with PA:E199G substitution
structure (smiles),measurement,value
"COC(=O)OCOc1c2n(ccc1=O)N([C@@H]1c3ccccc3SCc3c1ccc(F)c3F)[C@@H]1COCCN1C2=O [BXM, baloxavir marboxil]",RI (reduced inhibition) to BXM,4.5 fold
